Values quoted from earlier work, collected in patent US6638535B2, “Modified release formulations containing a hypnotic agent” (Synthon BV, priority 2000, dated 2003).

Settings: in therapy, after ingestion of the commercial immediate release tablet

In the case of `Cc1ccc(-c2nc3ccc(C)cn3c2CC(=O)N(C)C)cc1` [zolpidem, N,N,6-trimethyl-2-(4-methylphenyl)-imidazo[1,2-s]pyridine-3-acetamide], the “duration of action (action lasts)” value is given as 4 to 6 h and the “onset of action (starts acting)” value ('or even earlier') is given as 15 to 30 min.
